From patent publication US5922697A, “Compounds, compositions and methods for inhibiting the binding of proteins containing an SH2 domain to cognate phosphorylated proteins” (Warner-Lambert Company, priority 1998, dated 1999)
pIC50: −log10 of the molar value. Like-named read-outs stand apart in the source and are kept apart here. Square brackets hold non-standard residues; d marks the D form. Peptide text beside a SMILES is read from it. * marks the point of attachment. pY = N[C@@H](Cc1ccc(OP(=O)(O)O)cc1)C(=O)O; NHPhenethyl = c1ccc(CCN*)cc1

Biological target: T1, Src SH2 (Homo sapiens, UniProt P12931)
T1 construct: glutathione-S-transferase(GST)-Src SH2 fusion protein
T1 sequence (P12931 151-248 limits assumed): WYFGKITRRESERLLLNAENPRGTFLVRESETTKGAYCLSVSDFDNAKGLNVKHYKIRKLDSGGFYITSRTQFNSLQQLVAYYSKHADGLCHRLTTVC
Assay: Inhibition of 125I-phosphopeptide binding to immobilized Src SH2
Procedure: The binding affinities of compounds of the present invention to Src SH2 was determined using a competitive radiolabeled phosphopeptide displacement assay.
Binding was performed at room temperature for 20 minutes while continuously inverting the plate. […] Results are expressed as IC50 values in Table 1 below.

[1] = IC50, SRC SH2 Binding, competitive 125I-phosphopeptide displacement, GST-Src SH2 fusion protein, pH 7.5, room temperature, 20 minutes
[2] = competitive 125I-phosphopeptide displacement, GST-Src SH2 fusion protein, pH 7.5, room temperature, 20 minutes; read-out: IC50, SRC SH2 Binding

SMILES | pIC50 [1] | also measured
CC(=O)N[C@@H](Cc1ccc(OP(=O)(O)O)cc1)C(=O)N[C@@H](CCC(=O)O)C(=O)NCCCCC(C)C (relative stereo) [Example 37, [S -(R*,R*)]-4-[2-Acetylamino-3-(4-phosphonooxy-phenyl)-propionylamino]-4-(5-methyl-hexylcarbamoyl)-butyric acid] | 5.17 | 
CC(=O)N[C@@H](Cc1ccc(OP(=O)(O)O)cc1)C(=O)N[C@@H](CCC(=O)O)C(=O)N[C@@H](C)CC1CCCCC1 [Example 2, 4-[(S)-2-Acetylamino-3-(4-phosphonooxy-phenyl)-(S)-propionylamino]-4-(2-cyclohexyl-(S)-1-methylethylcarbamoyl)-butyric acid] | 5.62 | 
CC(=O)N[C@@H](Cc1ccc(OP(=O)(O)O)cc1)C(=O)N[C@@H](CCC(=O)O)C(=O)N(C)[C@@H](C)CC1CCCCC1 [Example 3] | 5.64 | 
CNC(=O)N[C@@H](Cc1ccc(OP(=O)(O)O)cc1)C(=O)N[C@@H](CCC(=O)O)C(=O)N(C)CCCC1CCCCC1 [Example 7, [S-(R*,R*)]-4-[(3-Cyclohexyl-propyl)-methyl-carbamoyl]-4-[2-(3-methyl-ureido)-3-(4-phosphonooxy-phenyl)-propionylamino]-butyric acid] | 5.70 | 
CCCC[C@H](NC(=O)[C@H](Cc1ccc(OP(=O)(O)O)cc1)NC(C)=O)C(=O)N(C)CCCC1CCCCC1 [Example 9, [S-(R*,R*)]-Phosphoric acid mono-[4-(2-acetylamino-2-{1-[(3-cyclohexyl-propyl)-methyl-carbamoyl]-pentylcarbamoyl}-ethyl)-phenyl] ester] | 5.21 | 
CC(=O)N[C@@H](Cc1ccc(OP(=O)(O)O)cc1)C(=O)N[C@@H](CCC(=O)O)C(=O)NCCc1cccc2c1CCCC2 [Example 13, [S-(R* ,R*)]-4-[2-Acetylamino-3-(4-phosphonooxy-phenyl)-propionylamino]-4-[2-(5,6,7,8-tetrahydro-naphthalen-1-yl)-ethylcarbamoyl]-butyric acid] | 5.36 | 
CC(=O)N[C@@H](Cc1ccc(OP(=O)(O)O)cc1)C(=O)N[C@@H](CCC(=O)O)C(=O)NCCCc1ccccc1 [Example 14, [S-(R*,R*)]-4-[2-Acetylamino-3-(4-phosphonooxy-phenyl)-propionylamino]-4-(3-phenyl-propylcarbamoyl)-butyric acid] |  | pIC50 [2]: 5.00
CC(=O)N[C@@H](Cc1ccc(OP(=O)(O)O)cc1)C(=O)N[C@@H](CCC(=O)O)C(=O)NCc1cccc2ccccc12 [Example 15, [S-(R*,R*)]-4-[2-Acetylamino-3-(4-phosphonooxy-phenyl)-propionylamino]-4-[(naphthalen-1-ylmethyl)-carbamoyl]-butyric acid] | 5.15 | 
CC(=O)N[C@@H](Cc1ccc(OP(=O)(O)O)cc1)C(=O)N[C@@H](CCC(=O)O)C(=O)NCCc1ccccc1 [Example 16, [S-(R*,R*)]-4-[2-Acetylamino-3-(4-phosphonooxy-phenyl)-propionylamino]-4-phenethylcarbamoyl-butyric acid] (Ac-[pY]-Glu-NHPhenethyl) | 5.01 | 
CC(=O)N[C@@H](Cc1ccc(OP(=O)(O)O)cc1)C(=O)N[C@@H](CCC(=O)O)C(=O)N(C)[C@@H](C)Cc1ccccc1 [Example 17, 4-[(S)-2-Acetylamino-3-(4-phosphonooxy-phenyl)-(S)-propionylamino]-4-[methyl-((S)-1-methyl-2-phenylethyl)-carbamoyl]-butyric acid] | 5.49 | 
CC(=O)N[C@@H](Cc1ccc(OP(=O)(O)O)cc1)C(=O)N[C@@H](CCC(=O)O)C(=O)N[C@@H](C)Cc1ccccc1 [Example 18, 4-[(S)-2-Acetylamino-3-(4-phosphonooxy-phenyl)-(S)-propionylamino]-4-((S)-1-methyl-2-phenylethylcarbamoyl)-butyric acid] | 5.48 | 
CC(=O)N[C@@H](Cc1ccc(OP(=O)(O)O)cc1)C(=O)N[C@@H](CCC(=O)O)C(=O)N(C)CCCc1ccccc1 [Example 19, [S-(R*,R*)]-4-[2-Acetylamino-3-(4-phosphonooxy-phenyl)-propionylamino]-4-[methyl-(3-phenyl-propyl)-carbamoyl]-butyric acid] | 5.25 | 
CC(=O)N[C@@H](Cc1ccc(OP(=O)(O)O)cc1)C(=O)N[C@@H](Cc1ccc(O)cc1)C(=O)NCCCc1ccccc1 [Example 20, [S-(R*,R*)]-Phosphoric acid mono-(4-{2-acetylamino-2-[2-(4-hydroxy-phenyl)-1-(3-phenyl-propylcarbamoyl)-ethyl-carbamoyl]-ethyl}-phenyl) ester] |  | pIC50 [2]: 4.70
COc1ccccc1CCNC(=O)[C@H](CCC(=O)O)NC(=O)[C@H](Cc1ccc(OP(=O)(O)O)cc1)NC(C)=O [Example 21, [S-(R*,R*)]4-[2-Acetylamino-3-(4-phosphonooxy-phenyl)-propionylamino]-4-[2-(2-methoxy-phenyl)-ethylcarbamoyl]-butyric acid] |  | pIC50 (read-out: IC50, SRC SH2 Binding; competitive 125I-phosphopeptide displacement, GST-Src SH2 fusion protein, pH 7.5, room temperature, 20 minutes): 5.26
CC(=O)N[C@@H](Cc1ccc(OP(=O)(O)O)cc1)C(=O)N[C@@H](CCC(=O)O)C(=O)NCCc1ccc(C)cc1 [Example 22, [S-(R*,R*)]-4-[2-Acetylamino-3-(4-phosphonooxy-phenyl)-propionylamino]-4-(2-p-tolyl-ethylcarbamoyl)-butyric acid] | 5.08 | 
COc1ccccc1CCN(C)C(=O)[C@H](CCC(=O)O)NC(=O)[C@H](Cc1ccc(OP(=O)(O)O)cc1)NC(C)=O [Example 23, [S-(R*,R*)]-4-[2-Acetylamino-3-(4-phosphonooxy-phenyl)-propionylamino]-4-{[2-(2-methoxy-phenyl)-ethyl]-methyl-carbamoyl}-butyric acid] | 5.21 | 
CC(=O)N[C@@H](Cc1ccc(OP(=O)(O)O)cc1)C(=O)N[C@@H](C)C(=O)N(CCCC(=O)O)CCCC1CCCCC1 [Example 25, [S-(R*,R*)]-4-[{2-[2-Acetylamino-3-(4-phosphonooxy-phenyl)-propionylamino}-propionyl]-(3-cyclohexylpropyl)-amino]-butyric acid] | 5.15 | 
CC(=O)N[C@@H](Cc1ccc(OP(=O)(O)O)cc1)C(=O)N[C@@H](C)C(=O)N(CCCC(=O)O)CCCc1ccccc1 [Example 26, [S-(R*,R*)]-4-[{2-[2-Acetylamino-3-(4-phosphonooxy-phenyl)-propionylamino}-propionyl]-(3-phenyl-propyl)-amino]-butyric acid] | 5.01 | 
CC(=O)N[C@@H](Cc1ccc(OP(=O)(O)O)cc1)C(=O)N[C@@H](C)C(=O)N(CCCCC(=O)O)CCCc1ccccc1 [Example 27, [S-(R*,R*)]-5-[{2-[2-Acetylamino-3-(4-phosphonooxy-phenyl)-propionylamino]-propionyl}-(3-phenyl-propyl)-amino]-pentanoic acid] | 5.10 | 
CCCCN(CCCc1ccccc1)C(=O)[C@H](C)NC(=O)[C@H](Cc1ccc(OP(=O)(O)O)cc1)NC(C)=O [Example 28, [S-(R*,R*)]-Phosphoric acid mono-[4-(2-acetylamino-2-{1-[butyl-(3-phenyl-propyl)-carbamoyl]-ethylcarbamoyl}-ethyl)-phenyl] ester] | 4.92 | 
CC(=O)N[C@@H](Cc1ccc(OP(=O)(O)O)cc1)C(=O)N[C@@H](CCC(=O)O)C(=O)NCCCc1ccc(OCC(=O)O)cc1 [Example 29, [S-(R*,R*)]-4-[2-Acetylamino-3-(4-phosphonooxy-phenyl)-propionylamino]-4-[3-(4-carboxymethoxy-phenyl)-propylcarbamoyl]-butyric acid] | 5.08 | 
CC(=O)N[C@@H](Cc1ccc(OP(=O)(O)O)cc1)C(=O)N[C@@H](CCC(=O)O)C(=O)N1CCC[C@H]1Cc1ccccc1 [Example 30] | 5.26 | 
CC(=O)N(C)C(Cc1ccc(OP(=O)(O)O)cc1)C(=O)N[C@@H](CCC(=O)O)C(=O)NCCCc1ccccc1 (stereo partly drawn) [Example 32, 4-[(RS)-2-(Acetyl-methyl-amino)-3-(4-phosphonooxy-phenyl)-(S)-propionylamino]-4-(3-phenylpropylcarbamoyl)-butyric acid] | 5.04 | 
CS(=O)(=O)N[C@@H](Cc1ccc(OP(=O)(O)O)cc1)C(=O)N[C@@H](CCC(=O)O)C(=O)NCCCc1ccccc1 [Example 33, [S-(R*,R*)]-4-[2-Methanesulfonylamino-3-(4-phosphonooxy-phenyl)-propionylamino]-4-(3-phenyl-propylcarbamoyl)-butyric acid] | 5.03 | 
CCC(C)CCCNC(=O)[C@H](CCC(=O)O)NC(=O)[C@H](Cc1ccc(OP(=O)(O)O)cc1)NC(C)=O (stereo partly drawn) [Example 38, [S-(R*,R*)]-4-[2-Acetylamino-3-(4-phosphonooxy-phenyl)-propionylamino]-4-(4-methyl-hexylcarbamoyl)-butyric acid] | 5.39 | 
NC(=O)c1cc(CNC(=O)c2ccc(OP(=O)(O)O)cc2)ccc1OCc1ccccc1 [Example 39, Phosphoric acid mono-[4-(4-benzyloxy-3-carbamoyl-benzylcarbamoyl)-phenyl] ester] | 5.01 | 
Cc1cccc(COc2ccc(CNC(=O)c3ccc(OP(=O)(O)O)cc3)cc2C(N)=O)c1 [Example 40, Phosphoric acid mono-{4-[3-carbamoyl-4-(3-methyl-benzyloxy)-benzylcarbamoyl]-phenyl} ester] | 5.15 | 
Cc1cc(C)cc(COc2ccc(CNC(=O)c3ccc(OP(=O)(O)O)cc3)cc2C(N)=O)c1 [Example 41, Phosphoric acid mono-{4-[3-carbamoyl-4-(3,5-dimethyl-benzyloxy)-benzylcarbamoyl]-phenyl} ester] | 5.18 | 
CC(C)CCCOc1ccc(CNC(=O)c2ccc(OP(=O)(O)O)cc2)cc1C(N)=O [Example 42, Phosphoric acid mono-{4-[3-carbamoyl-4-(4-methyl-pentyloxy)-benzylcarbamoyl]-phenyl} ester] | ~4.52 | 
CCC(C)CCCOc1ccc(CNC(=O)c2ccc(OP(=O)(O)O)cc2)cc1C(N)=O (stereo not drawn) [Example 43, Phosphoric acid mono-{4-[3-carbamoyl-4-(4-methyl-hexyloxy) -benzylcarbamoyl]-phenyl} ester] | ~4.70 | 
